# Experimental data reported in US10787452B2 (Vertex Pharmaceuticals Incorporated, priority 2012, dated 2020).
# Test system: HCT116 colorectal cancer cells
# Test: Cisplatin sensitization assay (96 h cell viability MTS);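 further: compound concentration needed to lower the Cisplatin-alone IC50 by a set fold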
# Assay type: cell-based
# Settings: 96 h MTS, compound plus Cisplatin
# Procedure, shortened: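 Simultaneous addition of compound and cisplatin (2-fold series, top 10 μM final, full matrix), followed by 96 h culture at 37° C/5% CO2 and a 1 h MTS viability read.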
row,SMILES,Cisplatin Sensitization Assay
1,"CC1CN(C)CCN1c1ccncc1NC(=O)c1c(N)nn2cc(Cl)cnc12 (centres unmarked) [I-N-72, 2-amino-6-chloro-N-(4-(2,4-dimethylpiperazin-1-yl)pyridin-3-yl)pyrazolo[1,5-a]pyrimidine-3-carboxamide]",+++ (Compounds with a Cisplatin sensitization value of <0.02 μM are marked with “+++.”)
2,"COC1CCN(c2ccncc2NC(=O)c2c(N)nn3cc(Cl)cnc23)CC1 [I-N-73, 2-amino-6-chloro-N-(4-(4-methoxypiperidin-1-yl)pyridin-3-yl)pyrazolo[1,5-a]pyrimidine-3-carboxamide]",+++ (Compounds with a Cisplatin sensitization value of <0.02 μM are marked with “+++.”)
3,"COC(=O)C1CCN(c2ccncc2NC(=O)c2c(N)nn3cc(Cl)cnc23)CC1 [I-N-74, methyl-1-(3-(2-amino-6-chloropyrazolo[1,5-a]pyrimidine-3-carboxamido)pyridin-4-yl)piperidine-4-carboxylate]",+++ (Compounds with a Cisplatin sensitization value of <0.02 μM are marked with “+++.”)
4,"Nc1nn2cc(Cl)cnc2c1C(=O)Nc1cnccc1N1CCn2cncc2C1 [I-N-75, 2-amino-6-chloro-N-(4-(5,6-dihydroimidazo[1,5-a]pyrazin-7(8H)-yl)pyridin-3-yl)pyrazolo[1,5-a]pyrimidine-3-carboxamide]",+++ (Compounds with a Cisplatin sensitization value of <0.02 μM are marked with “+++.”)
5,"CN1CCN(c2ccncc2NC(=O)c2c(N)nn3cc(C(C)(C)C#N)cnc23)CC1 [I-N-76, 2-amino-6-(2-cyanopropan-2-yl)-N-(4-(4-methylpiperazin-1-yl)pyridin-3-yl)pyrazolo[1,5-a]pyrimidine-3-carboxamide]",+++ (Compounds with a Cisplatin sensitization value of <0.02 μM are marked with “+++.”)
6,"N#CCc1cnc2c(C(=O)Nc3cnccc3N3CCCC3)c(N)nn2c1 [I-N-77, 2-amino-6-(cyanomethyl)-N-(4-(pyrrolidin-1-yl)pyridin-3-yl)pyrazolo[1,5-a]pyrimidine-3-carboxamide]",+ (Compounds with a Cisplatin sensitization value >0.2 μM but <5 μM are marked with “+.”)
7,"N#CCc1cnc2c(C(=O)Nc3cnccc3N3CCCCCC3)c(N)nn2c1 [I-N-79, 2-amino-N-(4-(azepan-1-yl)pyridin-3-yl)-6-(cyanomethyl)pyrazolo[1,5-a]pyrimidine-3-carboxamide]",++ (Compounds with a Cisplatin sensitization value >0.02 μM but <0.2 μM are marked with “++.”)
8,"CN1CCN(c2c(F)cncc2NC(=O)c2c(N)nn3cc(CC#N)cnc23)CC1 [I-N-80, 2-amino-6-(cyanomethyl)-N-(5-fluoro-4-(4-methylpiperazin-1-yl)pyridin-3-yl)pyrazolo[1,5-a]pyrimidine-3-carboxamide]",++ (Compounds with a Cisplatin sensitization value >0.02 μM but <0.2 μM are marked with “++.”)
9,"N#CCc1cnc2c(C(=O)Nc3cnccc3N3CCOCC3)c(N)nn2c1 [I-N-81, 2-amino-6-(cyanomethyl)-N-(4-morpholinopyridin-3-yl)pyrazolo[1,5-a]pyrimidine-3-carboxamide]",+++ (Compounds with a Cisplatin sensitization value of <0.02 μM are marked with “+++.”)
10,"CN1CCN(c2ccncc2NC(=O)c2c(N)nn3cc(CC#N)cnc23)CC1 [I-N-82, 2-amino-6-(cyanomethyl)-N-(4-(4-methylpiperazin-1-yl)pyridin-3-yl)pyrazolo[1,5-a]pyrimidine-3-carboxamide]",++ (Compounds with a Cisplatin sensitization value >0.02 μM but <0.2 μM are marked with “++.”)
11,"N#CCc1cnc2c(C(=O)Nc3cnccc3N3CCC(O)CC3)c(N)nn2c1 [I-N-83, 2-amino-6-(cyanomethyl)-N-(4-(4-hydroxypiperidin-1-yl)pyridin-3-yl)pyrazolo[1,5-a]pyrimidine-3-carboxamide]",++ (Compounds with a Cisplatin sensitization value >0.02 μM but <0.2 μM are marked with “++.”)
12,"N#CCc1cnc2c(C(=O)Nc3cnccc3N3CCCCC3)c(N)nn2c1 [I-N-84, 2-amino-6-(cyanomethyl)-N-(4-(piperidin-1-yl)pyridin-3-yl)pyrazolo[1,5-a]pyrimidine-3-carboxamide]",+++ (Compounds with a Cisplatin sensitization value of <0.02 μM are marked with “+++.”)
13,"CN1CCN(c2c(Cl)cncc2NC(=O)c2c(N)nn3cc(F)cnc23)CC1 [I-N-85, 2-amino-N-(5-chloro-4-(4-methylpiperazin-1-yl)pyridin-3-yl)-6-fluoropyrazolo[1,5-a]pyrimidine-3-carboxamide]",++ (Compounds with a Cisplatin sensitization value >0.02 μM but <0.2 μM are marked with “++.”)
14,"Nc1nn2cc(Cl)cnc2c1C(=O)Nc1cnccc1N1CCC(N)CC1 [I-N-86, 2-amino-N-(4-(4-aminopiperidin-1-yl)pyridin-3-yl)-6-chloropyrazolo[1,5-a]pyrimidine-3-carboxamide]",+++ (Compounds with a Cisplatin sensitization value of <0.02 μM are marked with “+++.”)
15,"CNC1CCN(c2ccncc2NC(=O)c2c(N)nn3cc(Cl)cnc23)CC1 [I-N-87, 2-amino-6-chloro-N-(4-(4-(methylamino)piperidin-1-yl)pyridin-3-yl)pyrazolo[1,5-a]pyrimidine-3-carboxamide]",++ (Compounds with a Cisplatin sensitization value >0.02 μM but <0.2 μM are marked with “++.”)
16,"Nc1nn2cc(Cl)cnc2c1C(=O)Nc1cnccc1N1CCNCC1 [I-N-88, 2-amino-6-chloro-N-(4-(piperazin-1-yl)pyridin-3-yl)pyrazolo[1,5-a]pyrimidine-3-carboxamide]",++ (Compounds with a Cisplatin sensitization value >0.02 μM but <0.2 μM are marked with “++.”)
17,"N#CCc1cnc2c(C(=O)Nc3cnccc3N3CCNCC3)c(N)nn2c1 [I-N-89, 2-amino-6-(cyanomethyl)-N-(4-(piperazin-1-yl)pyridin-3-yl)pyrazolo[1,5-a]pyrimidine-3-carboxamide]",++ (Compounds with a Cisplatin sensitization value >0.02 μM but <0.2 μM are marked with “++.”)
18,"N#CCc1cnc2c(C(=O)Nc3cnccc3N3CCOC(CN)C3)c(N)nn2c1 (centres unmarked) [I-N-90, 2-amino-N-(4-(2-(aminomethyl)morpholino)pyridin-3-yl)-6-(cyanomethyl)pyrazolo[1,5-a]pyrimidine-3-carboxamide]",+ (Compounds with a Cisplatin sensitization value >0.2 μM but <5 μM are marked with “+.”)
19,"NCC1CCN(c2ccncc2NC(=O)c2c(N)nn3cc(Cl)cnc23)CC1 [I-N-91, 2-amino-N-(4-(4-(aminomethyl)piperidin-1-yl)pyridin-3-yl)-6-chloropyrazolo[1,5-a]pyrimidine-3-carboxamide]",++ (Compounds with a Cisplatin sensitization value >0.02 μM but <0.2 μM are marked with “++.”)
20,"CN(C)C1CN(C2CCN(c3ccncc3NC(=O)c3c(N)nn4cc(Cl)cnc34)CC2)C1 [I-N-94, 2-amino-6-chloro-N-(4-(4-(3-(dimethylamino)azetidin-1-yl)piperidin-1-yl)pyridin-3-yl)pyrazolo[1,5-a]pyrimidine-3-carboxamide]",+++ (Compounds with a Cisplatin sensitization value of <0.02 μM are marked with “+++.”)
21,"COC1CCN(C2CCN(c3ccncc3NC(=O)c3c(N)nn4cc(Cl)cnc34)CC2)C1 (centres unmarked) [I-N-95, 2-amino-6-chloro-N-(4-(4-(3-methoxypyrrolidin-1-yl)piperidin-1-yl)pyridin-3-yl)pyrazolo[1,5-a]pyrimidine-3-carboxamide]",++ (Compounds with a Cisplatin sensitization value >0.02 μM but <0.2 μM are marked with “++.”)
22,"CN1CCN(C2CCN(c3ccncc3NC(=O)c3c(N)nn4cc(Cl)cnc34)CC2)CC1 [I-N-97, 2-amino-6-chloro-N-(4-(4-(4-methylpiperazin-1-yl)piperidin-1-yl)pyridin-3-yl)pyrazolo[1,5-a]pyrimidine-3-carboxamide]",+++ (Compounds with a Cisplatin sensitization value of <0.02 μM are marked with “+++.”)
23,"Nc1nn2cc(Cl)cnc2c1C(=O)Nc1cnccc1N1CCC(N2CC[C@@H](F)C2)CC1 [I-N-98, (R)-2-amino-6-chloro-N-(4-(4-(3-fluoropyrrolidin-1-yl)piperidin-1-yl)pyridin-3-yl)pyrazolo[1,5-a]pyrimidine-3-carboxamide]",+++ (Compounds with a Cisplatin sensitization value of <0.02 μM are marked with “+++.”)
24,"Nc1nn2cc(Cl)cnc2c1C(=O)Nc1cnccc1N1CCC(N2CCC3(COC3)C2)CC1 [I-N-99, N-(4-(4-(2-oxa-6-azaspiro[3.4]octan-6-yl)piperidin-1-yl)pyridin-3-yl)-2-amino-6-chloropyrazolo[1,5-a]pyrimidine-3-carboxamide]",+++ (Compounds with a Cisplatin sensitization value of <0.02 μM are marked with “+++.”)
25,"Nc1nn2cc(Cl)cnc2c1C(=O)Nc1cnccc1N1CCC(N2CC[S+]([O-])CC2)CC1 [I-N-100, 2-amino-6-chloro-N-(4-(4-(1-oxidothiomorpholino)piperidin-1-yl)pyridin-3-yl)pyrazolo[1,5-a]pyrimidine-3-carboxamide]",++ (Compounds with a Cisplatin sensitization value >0.02 μM but <0.2 μM are marked with “++.”)
26,"Nc1nn2cc(Cl)cnc2c1C(=O)Nc1cnccc1N1CCC(N2CCn3cncc3C2)CC1 [I-N-101, 2-amino-6-chloro-N-(4-(4-(5,6-dihydroimidazo[1,5-a]pyrazin-7(8H)-yl)piperidin-1-yl)pyridin-3-yl)pyrazolo[1,5-a]pyrimidine-3-carboxamide]",++ (Compounds with a Cisplatin sensitization value >0.02 μM but <0.2 μM are marked with “++.”)
